{"source": "paper PMC9256669", "about": "“Monomethyl auristatin antibody and peptide drug conjugates for trimodal cancer chemo-radio-immunotherapy” (Nature Communications, 2022)", "key": {"[1]": {"test": "Tumor drug measurement (MMAE by LC-MS/MS) after ACPP-MMAE", "format": "in vivo, mouse", "details": "LL/2 and B16 tumors, 10 nmoles ACPP-MMAE i.v.", "description": "For CDX3379-MMAE drug measurements, 6-week-old female NOD SCID (University of California San Diego Animal Care Program) were injected orthotopically into the tongue with 150,000 CAL27 PIK3CA H1047R expressing cells in 20 µl of DMEM. After 10 days, mice were intravenously (i.v.) injected through the tail vein with 2.5 nmole of CDX3379-MMAE in 50 µl of PBS. […] Tumors were excised on days indicated in figure legends, weighed, and homogenized in 10 v/w of 2% acetic acid in 1:1 acetonitrile:water with a point sonicator (Fisher Scientific) using an amplitude range of 5–15% for 20 s on ice. Homogenates were centrifuged ([…], 10 min), supernatants collected for drug concentration measurements using LC–MS/MS. Drug concentration was determined by LC–MS/MS with Luna-2 C18 column and Agilent Trap XCT mass spectrometer. For MMAE tissue concentrations, integrated ion currents for m/z 682.4, 496.4 and m/z 686.4, 506.4 extracted from fragmented m/z 740.4 and 718.4, respectively, were combined. The total ion current was fit to a standard curve generated for each drug to quantitate tissue drug concentration."}, "B16 tumors [2]": {"tested_on": "B16 tumors", "format": "in vivo, C57BL/6 mice", "description": "At harvest, tumors were isolated, minced, and re-suspended in FBS-free DMEM media supplemented with components of MACs tumor dissociation kit. Tissues were incubated for 15 min at 37 °C and mechanically digested using the gentle MACs Octo dissociator. Tissue suspensions were washed with fresh media and passed through a 100-µm strainer. Samples were split in half for immediate staining or stimulated with the Biolegend Cell Activation Cocktail (with Brefeldin A) for 3 h. Samples were washed with PBS and immediately processed for live/dead cell discrimination using BD LIVE/DEAD™ Fixable Blue Dead Cell Stain Kit. Cells were washed and stained for surface markers for 30 min at 4 °C. Intracellular staining was performed using the eBioscience FOXP3/Transcription Factor Buffer Set from Invitrogen and stained with intracellular antibodies. […] All antibodies were validated by the supplier. All flow cytometry data acquisition was done using BD LSRFortessa and analyzed using FlowJo software. Immune cells were identified by the following characteristics: cytotoxic T cells (CD45+Thy1.2+CD8+), helper T cells (CD45+Thy1.2+CD4+), NK cells (CD45+Thy1.2−NK1.1+).\nFSC-A FSC-H SCC-H Live Dead-Blue\nRepresentative flow cytometry plots to gate immune cells quantitated in Fig. 4a, b, 4d &\nSupplementary Fig. 10b, c. b) Quantification of tumor immune cell identified by flow cytometry on\nTumors harvested on day 19 and immune cells characterized by flow cytometry. c) Tumor\nMice implanted with tumor\nSource data are provided in Source Data file."}, "B16 tumors [3]": {"tested_on": "B16 tumors", "test": "Subcutaneous tumor therapy with CD8 T cell depletion", "format": "in vivo, C57BL/6 mice", "details": "MMAE conjugate + IR, anti-CD8 antibody 10 mg/kg vs control", "method": "MOC1, B16, LL/2, and MC38 tumor cells were injected subcutaneously into the hindlimbs of 6-week-old female C57BL/6 albino mice in 100 µl of 1:1 Matrigel (BD) and PBS solution. Fractionated IR was delivered focally to the tumor-bearing hindlimbs (3 Gy to MC38 tumors and 5 Gy to LL/2 and B16 tumors) as indicated in figure legends using a PXI X-RAD 225 XL irradiator at maximal dose rate of 3 Gy/min with a beam-conditioning aluminum filter (Precision X-ray Irradiation). For RAG1 KO studies, 6-week-old female Rag1^tm1Mom mice were injected subcutaneously with tumor cells in their hindlimbs (Jackson Labs). For CD8 depletion studies, mice were i.p. injected with anti-CD8 (BioXCell #BE0117) at 10 mg/kg on days −6, −5 and −4 tumor cell implant and then weekly starting on day after tumor cells were injected or control antibody. […] Tumor volumes were measured and calculated using the formula as ½ * length * width^2. Mice were sacrificed when tumor volume reached >1500 mm^3, maximal tumor volume approved on our protocol for subcutaneous tumors."}, "MOC1": {"tested_on": "MOC1", "test": "Cytotoxicity, Alamar Blue assay", "format": "cell-based, murine", "details": "for sensitivity in cell culture, Alamar Blue assay: MOC1 and MOC2 cells, cell viability at 72 hr of drug exposure, CDX3379 at nM dosing", "description": "Murine colorectal (MC38 (ENH204-FP)) cancer cell lines were obtained from Kerafast. Murine head and neck MOC1 and MOC2 were generously provided by Dr. R. Uppaluri. CAL27 PIK3CA H1047R expressing cells and 4MOSC1 cells were generated in Dr. Gutkind’s laboratory and previously characterized[42],[55]. […] MC38 cells were cultured in DMEM supplemented with 10% FBS, 1 mM sodium pyruvate (Gibco), 1% non-essential amino acids (Gibco), and 10 mM HEPES (Gibco). MOC1 and MOC2 cells were cultured in IMDM (Lonza)/F-12K nutrient mixture at a 2:1 mixture with 5% FBS, 5 ng/ml EGF (EMD Millipore), 400 ng/ml hydrocortisone (Sigma), and […] insulin (Sigma). On receipt, each cell line was expanded, cryopreserved as low passage stocks, and routinely tested for mycoplasma. Cisplatin (Enzo Biosciences), paclitaxel (Sigma), and MMAE (Concortis) were reconstituted in DMSO. […] Clinical grade cetuximab (Erbitux, Lilly Medical) was obtained from UCSD Moores Cancer Center Pharmacy.\nCells were plated in 96-well plates and exposed to a drug concentration range for 72 h. Alamar Blue was added to the cells and allowed to incubate for 2–4 h at 37 °C. Plates were analyzed using a plate reader with fluorescence measured at 560 nm. Fractional survival was normalized to untreated control cell fluorescent values. Drug IC50 was calculated using Prism software (GraphPad, La Jolla, CA). Cell viability, cytotoxicity and apoptosis were also measured by ApoTox-Glo Triplex Assay (Promega).\nmeasured by Alamar Blue assay. For Alamar Blue assay cytotoxicity, we measured cell viability at 72 hr of […]"}, "[4]": {"test": "Blood clearance of Cy5-labeled CDX3379-MMAE (blood Cy5)", "format": "in vivo, Nude mice", "details": "immune-deficient and immune-competent mice, i.v. Cy5-labeled CDX3379-MMAE, Cy5 as surrogate marker", "description": "All animal work was done in compliance with the University of California San Diego Institutional Animal Use and Care Committee under protocol #S15290. Mice were housed in individually ventilated and micro-isolator cages supplied with acidified water and fed 5053 irradiated PicoLab Rodent Diet 20. Temperature for laboratory mice in housing was 18–23 °C with humidity 40–60%. Housing room is maintained on a 12-h light/dark cycle. […] For imaging, mice were anesthetized (1:1 mixture of 100 mg/ml of ketamine and 5 mg/ml of midazolam). Animals were imaged using a Maestro Small Animal Imager (CRI) with excitation filter of 607/36 and 633 nm long pass emission filter with dichroic filter tuned to 670 nm for Cy5 images only. Imaging was done both with skin on and after skin removal to decrease autofluorescence and scattering. Exposure time for Cy5 signal capture for tumor models was as follows: CAL27 for 800 ms, MOC1 for 200 ms and MOC2 for 1500 ms."}, "B16 cells": {"tested_on": "B16 cells", "test": "Cell surface binding of Cy5-labeled ADCs by flow cytometry", "format": "cell-based, murine", "method": "Murine cancer cells incubated on ice with Cy5 labeled ADC, bound Cy5 signal measured\nby flow cytometry. Mean fluorescent intensity measured and subtracted from baseline fluorescence of saline incubated cells for each cell line. Data representative of 3"}}, "note": "Values joined by “and” are separate entries in the source; they are usually repeats but may differ in a detail not shown here. Equal values may be shown once. Non-standard residues stand in square brackets, D forms with d. Residues, ends and D or L forms follow the SMILES beside them. *: point of attachment. Dolaproine = CO[C@@H]([C@@H]1CCCN1)[C@@H](C)C(=O)O; Dil = CC[C@H](C)[C@H](NC)[C@@H](CC(=O)O)OC; X1 = C[C@@H](N*)[C@@H](O)c1ccccc1; NMeV = CN[C@H](C(=O)O)C(C)C", "data": [{"molecule": "cyclo(RGD)fc-MC-HN-peg8-e9-oPLGC(Me)AG-r9-c-(MC-VC-PABC-MMAE)-CONH2 [ACPP-MMAE]", "values": [{"measurement": "release of conjugated drug warhead in tumors", "setting": "[1]", "value": "efficiently released its conjugated drug warhead equally in LL/2 and B16 tumors"}, {"measurement": "Flow cytometry, CD4+", "setting": "B16 tumors [2]; mouse, in vivo", "value": "0.17 and 0.11"}, {"measurement": "Flow cytometry, CD45+", "setting": "B16 tumors [2]; mouse, in vivo", "value": "9.46 and 7.71"}, {"measurement": "Flow cytometry, CD45 negative", "setting": "B16 tumors [2]; mouse, in vivo", "value": "89.90 and 91.80"}, {"measurement": "Flow cytometry, NK cells", "setting": "B16 tumors [2]; mouse, in vivo", "value": "0.17 and 0.11"}, {"measurement": "effect of CD8 T cell depletion on tumor control", "setting": "B16 tumors [3]", "value": "abrogated durable tumor control"}]}, {"molecule": "CDX3379-MMAE: anti-HER3 antibody CDX3379 with 4 MMAE per antibody via MC-VC-PABC linker, labeled with Cy5", "values": [{"measurement": "sensitivity in cell culture, Alamar Blue assay", "setting": "MOC1", "value": "sensitive"}, {"measurement": "time at which blood Cy5 signal returned to background fluorescence", "setting": "[4]", "value": "≤ 7", "unit": "days"}, {"measurement": "cell surface binding to B16 cells", "setting": "B16 cells", "value": "dose response cell surface binding"}, {"measurement": "tumor CD8 T cell infiltration, with IR", "setting": "B16 tumors [2]; B16 tumors, flow cytometry, drug + IR", "value": "significantly increased CD8 tumor cell infiltration"}, {"measurement": "Flow cytometry (Figure 4b)", "setting": "B16 tumors [2]; without IR, individual tumors", "value": "3.89 and 16.51 and 9.62"}, {"measurement": "effect of CD8 T cell depletion on tumor control", "setting": "B16 tumors [3]", "value": "significantly larger"}]}, {"molecule": "CC[C@H](C)[C@@H]([C@@H](CC(=O)N1CCC[C@H]1[C@H](OC)[C@@H](C)C(=O)N[C@H](C)[C@@H](O)c1ccccc1)OC)N(C)C(=O)[C@@H](NC(=O)[C@@H](NC)C(C)C)C(C)C", "note": "[MMAE, monomethyl auristatin E] (H-[NMeV]V[Dil][Dolaproine]-X1)", "values": [{"measurement": "IC50", "setting": "MOC1; MOC1, 72 h drug exposure, Alamar Blue, one value per biological replicate, read-out: IC50 values", "value": "7.93 nM and 8.71 nM and 8.36 nM and 9.59 nM"}, {"measurement": "sensitivity in cell culture, Alamar Blue assay", "setting": "MOC1", "value": "sensitive"}]}]}
